ChEMBL document CHEMBL1158633, “Synthesis and biological activity of alpha-glucosyl C24:0 and C20:2 ceramides” (2010)

Tested on: iNKT
Test: Induction of cellular expansion in human iNKT cells at 250 nM after 8 days
Type: functional

Structure (SMILES)	Activity
CCCCC/C=C\C/C=C\CCCCCCCCCC(=O)N[C@@H](CO[C@H]1O[C@H](CO)[C@@H](O)[C@H](O)[C@H]1O)[C@H](O)[C@H](O)CCCCCCCCCCCCCC	33%
CCCCC/C=C\C/C=C\CCCCCCCCCC(=O)N[C@@H](CO[C@H]1O[C@H](CO)[C@H](O)[C@H](O)[C@H]1O)[C@H](O)[C@H](O)CCCCCCCCCCCCCC	37%
CCCCCCCCCCCCCCCCCCCCCCCCCC(=O)N[C@@H](CO[C@H]1O[C@H](CO)[C@H](O)[C@H](O)[C@H]1O)[C@H](O)[C@H](O)CCCCCCCCCCCCCC [RGI-7000]	34%
